{"source": "paper PMC3522636", "about": "“4F Decreases IRF5 Expression and Activation in Hearts of Tight Skin Mice” (PLoS ONE, 2012)", "key": {"[1]": {"target": "T1, IRF5 (Homo sapiens, UniProt Q13568)", "T1 construct": "purchased GenScript USA Inc", "T1 sequence (Q13568 1-498)": "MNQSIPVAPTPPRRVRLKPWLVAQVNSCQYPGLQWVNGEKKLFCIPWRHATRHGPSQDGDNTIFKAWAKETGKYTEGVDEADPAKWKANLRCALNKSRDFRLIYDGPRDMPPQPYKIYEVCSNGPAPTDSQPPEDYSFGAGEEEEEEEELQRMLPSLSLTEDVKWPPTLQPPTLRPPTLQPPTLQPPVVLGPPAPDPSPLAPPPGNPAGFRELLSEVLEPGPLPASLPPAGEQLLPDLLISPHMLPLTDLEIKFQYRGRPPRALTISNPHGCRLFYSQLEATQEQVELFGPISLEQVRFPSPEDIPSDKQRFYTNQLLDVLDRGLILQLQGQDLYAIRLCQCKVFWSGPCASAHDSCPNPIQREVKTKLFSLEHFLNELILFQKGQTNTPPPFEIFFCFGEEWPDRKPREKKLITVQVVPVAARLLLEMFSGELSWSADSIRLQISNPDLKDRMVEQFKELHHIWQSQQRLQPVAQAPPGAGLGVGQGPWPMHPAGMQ", "assay": "B-4F pulldown assay from EC cytosolic fractions spiked with recombinant IRF5", "format": "binding", "conditions": "3 hours at 4°C, SA agarose beads overnight at 4°C; immunoblot", "procedure": "B-4F Pulldown Assays: To determine whether 4F interacts with IRF5 in the presence of cystosol proteins, we performed 4F pulldown assays on EC cytosolic fractions spiked with recombinant IRF5. Briefly, cytosolic EC fractions were precleared with SA agarose beads (Cat#15942-050, Invitrogen) for 30 minutes at 4°C. IRF5 interactions were enhanced by adding recombinant IRF5 (2% wt/vol, Genscript USA Inc.) to the endothelial cytosolic fractions. 4F and B-4F were added to the cytosolic fractions and incubated for 3 hours at 4°C. SA agarose beads were added and the samples mixed end-over-end overnight at 4°C. The following day the SA agarose beads were isolated by centrifugation. The proteins associated with B-4F were released from the beads with Laemmli buffer and separated by SDS-PAGE (4–15%) as above. IRF5 levels in the pulldown samples were determined by autoradiography of immunoblots as above."}, "[2]": {"tested_on": "IRF5", "assay": "IRF5 positive nuclei, immunofluorescence of heart sections", "format": "in vivo, mouse", "conditions": "4F 1 mg/kg/d, sc; Tsk−/+ heart sections, confocal; ratio IRF5 labeled nuclei to total nuclei; p<0.05, n = 3", "source_text": "(§1) All experimental procedures and protocols involving mice were reviewed and approved by the Institutional Animal Care and Use Committee (IACUC) of the Medical College of Wisconsin (AUA#512). They also conformed to the rules in the Guiding Principles in the Care and Use of Animals published by the American Physiologic Society and the Guide for the Care and Use of Laboratory Animals published by OLAW. Male Tsk^−/+ and C57Bl/6J mice (6–8 weeks of age) were purchased from Jackson Laboratories (Bar Harbor, ME). Three groups of mice were studied; C57Bl/6J, Tsk^−/+, and Tsk^−/+ mice treated with 4F (1 mg/kg/d, sc) as published previously.\nHearts were harvested from mice, flash frozen and imbedded in OCT and cut into 10 µm sections. Frozen sections were fixed for 10 minutes in PBS containing 1% paraformaldehyde. Cell membranes were permeabilized by incubation in PBS containing 0.5% Triton-X for 5 min at room temperature. The sections were washed once in PBS (5 min) and incubated in PBS containing mouse monoclonal anti-IRF5 antibody (Santa Cruz, 1∶50 concentration) for 30 min at 37°C. Unbound anti-IRF5 antibody was washed free from the sections with PBS and the slides incubated with the appropriate Alexa 488-conjugated secondary antibody (Invitrogen, Carlsbad, CA) for 30 min at 37°C. […] Sections were mounted in aqueous mounting media and analyzed by confocal microscopy, [17]."}, "[3]": {"tested_on": "Tsk−/+ mice", "assay": "Transthoracic echocardiography, posterior wall thickness / heart function", "format": "in vivo, mouse", "source_text": "as §1\nTsk^−/+ and C57BL/6J mice (n = 6) were anesthetized by isoflurane inhalation (1.50%) and oxygen. They were place on a warming platform supine position. A VisualSonics Vevo 770 high-resolution imaging system (Toronto, Canada) equipped with a 30-MHz transducer (Scanhead RMV 707) was used to perform the transthoracic echocardiography. Two-dimensional guided M-mode LV dimensions were measured and posterior wall thickness was analyzed."}, "[4]": {"target": "T1, IRF5", "assay": "Biolayer interferometry, 4F binding to B-IRF5", "conditions": "B-IRF5 on SA biosensors, Octet Red 96", "procedure": "Biolayer Interferometry (BLI): Protein-protein interactions were determined by BLI using an Octet Red 96™ interferometer (ForteBio, Inc, Menlo Park, CA). IRF5 was purchased (GenScript USA Inc) and labeled with biotin (cat no. 21329, Thermo Fisher Scientific, Rockford, IL) at a ratio of 1∶1, which is optimal for binding and packaging target proteins onto SA biosensors (MR18-0009, ForteBio) for studying protein-protein interactions. Biotin-labeled IRF5 (B-IRF5) was loaded onto SA-biosensors in PBS for 15 minutes to ensure saturation. The B-IRF5-loaded SA biosensors were incubated in PBS containing 4F (20 µg/ml) for 10 minutes and association measured by following increases in wavelength interference. Next the loaded biosensors were incubated in PBS alone for 10 minutes to measure dissociation of 4F from B-IRF5 by following decreases in wavelength interference."}, "[5]": {"conditions": "cited from earlier work", "source_text": "(§2) Although there is much support for the idea that 4F inhibits atherosclerosis by improving HDL function, the mechanism by which 4F decreases inflammation has not been identified completely. […] During the course of our studies for our report, [3], we found the anti-inflammatory effects of 4F on the Tsk^−/+ mice to be so profound that it was ..."}, "[6]": {"tested_on": "HDL", "conditions": "proposed mechanism; cited from earlier work", "source_text": "as §2"}, "[7]": {"tested_on": "proinflammatory HDL", "conditions": "cited from earlier work", "source_text": "Scleroderma is an autoimmune disease that is characterized by marked increases in fibrosis of the skin and internal organs in conjunction with enhanced apoptosis. The tight skin (Tsk^−/+) mouse is a murine model of systemic scleroderma that replicates many of the features observed in patients suffering from this disease."}}, "note": "“Also recorded” adds a separate entry of the source."}
{"substance": "Ac-DWFKAFYDKVAEKFKEAF-NH2 [4F]", "values": [{"measurement": "association with IRF5 in presence of EC cytosolic proteins (in words)", "setting": "[1]", "value": "strong enough to pull down IRF5 from a mixture of endothelial cell cytosolic proteins; also recorded: this interaction exists even in the presence of EC cytosolic proteins"}, {"measurement": "IRF5 nuclear localization / IRF5 positive nuclei", "setting": "[2]", "value": "decreased both measurements in Tsk^−/+ hearts; also recorded: marked decreases in IRF-5 nuclear localization; also recorded: significantly more nuclear labeling in Tsk^−/+ hearts compared to C57BL/6J hearts and hearts from Tsk^−/+ mice treated with 4F; also recorded: decrease IRF5 expression, activation, nuclear translocation"}, {"measurement": "posterior wall thickness", "setting": "[3]; 4F 1 mg/kg/d, sc, 6–8 weeks, 4F-treated Tsk−/+ vs untreated Tsk−/+ mice, p<0.05, n = 6, M-mode echocardiography, isoflurane", "value": "significantly increased in Tsk^−/+ compared to C57Bl/6J (control) and Tsk^−/+ mice with 4F treatment; also recorded: significantly higher in the Tsk^−/+ mice compared to C57Bl/6J and Tsk^−/+ mice treated with 4F; also recorded: significantly improved"}, {"measurement": "onset of heart failure", "setting": "[3]; 4F treatment of Tsk−/+ mice (Figure 1)", "value": "appear to delay the onset of heart failure in Tsk^−/+ mice"}, {"measurement": "association with B-IRF5", "setting": "[4]; 4F 20 µg/ml in PBS, 10 minutes", "value": "rapidly associated"}, {"measurement": "association versus dissociation with IRF5", "setting": "[4]; 4F 20 µg/ml", "value": "favoring association over dissociation; also recorded: favors association over dissociation; also recorded: rate of 4F association with IRF5 is faster than their rate of dissociation"}, {"measurement": "dissociation from B-IRF5", "setting": "[4]; PBS alone, 10 minutes", "value": "slow"}, {"measurement": "affinity for oxidized versus native lipids", "setting": "[5]", "value": "greater affinity for oxidized rather than native lipids"}, {"measurement": "preβ HDL formation and HDL-dependent cholesterol efflux", "setting": "[6]", "value": "formation of preβ HDL with improved HDL-dependent cholesterol efflux"}, {"measurement": "reverse cholesterol transport", "setting": "[6]", "value": "improvements in reverse cholesterol transport"}, {"measurement": "proinflammatory HDL levels", "setting": "[7]", "value": "decrease proinflammatory HDL levels"}]}
